Our source for the EC50 values is patent US8034822B2, “Glucokinase activators” (Takeda San Diego, Inc., priority 2006, dated 2011).

Structures are written as SMILES.

This assay has as its target T1, glucokinase (GK) (Homo sapiens, UniProt P35557).
T1 construct: I.D. No. 1 corresponds to residues 12-465 of glucokinase; made in house; host or cells: E. coli DH10b-T1r, pFLAG-CTC plasmid
T1 sequence (P35557 with tags, fused parts or gaps isoform P35557-2): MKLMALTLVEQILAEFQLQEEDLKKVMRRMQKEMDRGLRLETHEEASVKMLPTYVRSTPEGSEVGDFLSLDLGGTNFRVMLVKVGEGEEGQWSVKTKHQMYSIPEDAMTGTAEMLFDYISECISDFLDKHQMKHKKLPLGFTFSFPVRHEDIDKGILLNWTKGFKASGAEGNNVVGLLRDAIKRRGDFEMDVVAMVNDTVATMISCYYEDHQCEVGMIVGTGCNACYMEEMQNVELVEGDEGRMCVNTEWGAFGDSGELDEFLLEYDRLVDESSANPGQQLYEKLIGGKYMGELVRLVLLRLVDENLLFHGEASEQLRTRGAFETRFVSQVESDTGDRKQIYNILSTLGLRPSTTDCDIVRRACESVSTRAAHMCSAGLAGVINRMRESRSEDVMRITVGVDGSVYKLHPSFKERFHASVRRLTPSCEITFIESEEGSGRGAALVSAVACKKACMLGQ
Description: enzymatic glucokinase activity assay (ATP consumption, KinaseGlo luminescence). The format is biochemical. The note with it: Against GK; Kact = concentration giving 50% of maximal increase in GK activity; 5 μM ATP, 5 mM Glucose, 60 min room temperature; values given as bins; read-out: pKact. The source says:
The activity of compounds as glucokinase activators may be assayed in vitro, in vivo or in a cell line. Provided below is an enzymatic glucokinase activity assay.
Purified glucokinase may be obtained as follows. DNA encoding residues 12-465 of the full-length sequence of the human enzyme may be amplified by PCR and cloned into the HindIII and EcoRI sites of pFLAG-CTC (Sigma). SEQ. I.D. No. 1 corresponds to residues 12-465 of glucokinase.
The expression of recombinant glucokinase protein may be carried out by transformation and growth of DH10b-T1r E. coli cells incorporating the (pFLAG-CTC) plasmid in LB media. Protein expression can be induced in this system by the addition of IPTG to the culture medium.
Recombinant protein may be isolated from cellular extracts by passage over Sepharose Q Fast Flow resin (Pharmacia). This partially purified GK extract may then be further purified by a second passage over Poros HQ10 (Applied Biosystems). The purity of GK may be determined on denaturing SDS-PAGE gel. Purified GK may then be concentrated to a final concentration of 20.0 mg/ml. After flash freezing in liquid nitrogen, the proteins can be stored at −78° C. in a buffer containing 25 mM TRIS-HCl pH 7.6, 50 mM NaCl, and 0.5 mM TCEP.
The activation properties of compounds for GK may be determined using a black 384-well-plate format under the following reaction conditions: 25 mM Hepes pH 7.2, 25 mM NaCl, 10 mM MgCl2, 0.01% Brij35, 1 mM DTT, 5 μM ATP, 5 mM Glucose 2% DMSO. The amount of ATP consumed may be determined quantitatively by addition of equal volume of luciferase reagent (luciferase+beetle luciferin—KinaseGlo Luminescent Kinase Assay kit from Promega). The luminescence intensity may be measured by using the Analyst HT from LJL Biosystems.
The assay reaction may be initiated as follows: 4 μl of substrate mixture (12.5 μM ATP and 12.5 mM Glucose) was added to each well of the plate, followed by the addition of 2 μl of activator (2 fold serial dilutions for 11 data points for each activator) containing 10% DMSO. 4 μL of 1.25 nM GK solution may be added to initiate the reaction. The reaction mixture may then be incubated at room temperature for 60 min, and quenched and developed by addition of 10 μL of luciferase reagent. Luminescence intensities of the resulting reaction mixtures may be measured after a 10 min incubation at room temperature. The luminescence intensity may be measured by using the Analyst HT from LJL Biosystems.
pKact and % ACTmax values may be calculated by non-linear curve fitting of the compound concentrations and luminescence intensities to a standard inhibition/activation equation.
(In Kinase-Glo more light means more ATP remaining.)
Turning to `O=C(Nc1ncc(Cl)s1)C(CC1CCCCC1)n1cnc2c(C(F)(F)F)cccc2c1=O` (stereo not drawn) [Compound 142, N-(5-chlorothiazol-2-yl)-3-cyclohexyl-2-(4-oxo-8-(trifluoromethyl)-quinazolin-3(4H)-yl)propanamide], the EC50 is no less than 2 µM.
As to `O=C(Nc1ccc(F)cn1)C(CC1CCCCC1)n1cnc2ccc(F)cc2c1=O` (stereo not drawn) [Compound 159, 3-cyclohexyl-2-(6-fluoro-4-oxoquinazolin-3(4H)-yl)-N-(5-fluoropyridin-2-yl)propanamide], the EC50 was no less than 2 µM.
Turning to `O=C(Nc1ncc(Cl)s1)C(CC1CCCCC1)n1c(=O)[nH]c2ccc(F)cc2c1=O` (stereo not drawn) [Compound 38, N-(5-chlorothiazol-2-yl)-3-cyclohexyl-2-(6-fluoro-2,4-dioxo-1,2-dihydroquinazolin-3(4H)-yl)propanamide], the EC50 is no less than 2 µM.
With `COC(=O)c1ccc(NC(=O)C(CC2CCCCC2)n2cnc3cc(S(=O)(=O)C4CCCC4)ccc3c2=O)nc1` (stereo not drawn) [Compound 83, 6-[3-Cyclohexyl-2-(7-cyclopentanesulfonyl-4-oxo-4H-quinazolin-3-yl)-propionylamino]-nicotinic acid methyl ester], the EC50 was no more than 0.398 µM.
Regarding `NC(=O)c1ccc(NC(=O)C(CC2CCCCC2)n2cnc3cc(S(=O)(=O)C4CCCC4)ccc3c2=O)nc1` (stereo not drawn) [Compound 80, 6-[3-Cyclohexyl-2-(7-cyclopentanesulfonyl-4-oxo-4H-quinazolin-3-yl)-propionylamino]-nicotinamide], the EC50 was no more than 0.398 µM.
Turning to `O=C(Nc1nc2ccccc2s1)C(CC1CCCCC1)n1cnc2ccc(F)cc2c1=O` (stereo not drawn) [Compound 35, N-(benzo[d]thiazol-2-yl)-3-cyclohexyl-2-(6-fluoro-4-oxoquinazolin-3(4H)-yl)propanamide], the EC50 fell in the range of 0.501 to 0.794 µM.
`CC(C)S(=O)(=O)c1csc2c(=O)n(C(CC3CCCCC3)C(=O)Nc3ccc(F)cn3)cnc12` (stereo not drawn) [Compound 105, 3-Cyclohexyl-N-(5-fluoropyridin-2-yl)-2-(7-(isopropylsulfonyl)-4-oxothieno[3,2-d]pyrimidin-3(4H)-yl)propanamide]: the EC50 is 1 to 1.58 µM.
On to `NC(=O)c1ccc(NC(=O)C(CC2CCCCC2)n2cnc3cc(C(=O)NC4CC4)ccc3c2=O)nc1` (stereo not drawn) [Compound 169, 3-(1-(5-carbamoylpyridin-2-ylamino)-3-cyclohexyl-1-oxopropan-2-yl)-N-cyclopropyl-4-oxo-3,4-dihydroquinazoline-7-carboxamide], for which the EC50 was no more than 0.398 µM.
On to `CS(=O)(=O)c1ccc2c(=O)n(C(CC3CCCCC3)C(=O)Nc3ccccn3)cnc2c1` (stereo not drawn) [Compound 60, 3-Cyclohexyl-2-(7-methanesulfonyl-4-oxo-4H-quinazolin-3-yl)-N-pyridin-2-yl-propionamide], for which the EC50 is no less than 2 µM.
`CC(C)S(=O)(=O)c1ccc2ncn(C(CC3CCCCC3)C(=O)Nc3ccc(Cl)cn3)c(=O)c2c1` (stereo not drawn) [Compound 84, N-(5-Chloro-pyridin-2-yl)-3-cyclohexyl-2-[4-oxo-6-(propane-2-sulfonyl)-4H-quinazolin-3-yl]-propionamide]: the EC50 lay within 0.501 to 0.794 µM.
With `O=C(NC1CC1)c1ccc2c(=O)n(C(CC3CCCCC3)C(=O)Nc3ncc(Cl)s3)cnc2c1` (stereo not drawn) [Compound 170, 3-(1-(5-chlorothiazol-2-ylamino)-3-cyclohexyl-1-oxopropan-2-yl)-N-cyclopropyl-4-oxo-3,4-dihydroquinazoline-7-carboxamide], the EC50 is no more than 0.398 µM.
For `O=C(NC1CC1)c1ccc2c(=O)n(C(CC3CCOCC3)C(=O)Nc3ncc(Cl)s3)cnc2c1` (stereo not drawn) [Compound 180, 3-(1-(5-chlorothiazol-2-ylamino)-1-oxo-3-(tetrahydro-2H-pyran-4-yl)propan-2-yl)-N-cyclopropyl-4-oxo-3,4-dihydroquinazoline-7-carboxamide], the EC50 was no less than 2 µM.
As to `O=C(Nc1ncc(Cl)s1)C(CC1CCCCC1)n1cnc2ccc(F)cc2c1=O` (stereo not drawn) [Compound 50, N-(5-Chloro-thiazol-2-yl)-3-cyclohexyl-2-(6-fluoro-4-oxo-4H-quinazolin-3-yl)-propionamide], the EC50 is no less than 2 µM.
With `COC(=O)c1ccc(NC(=O)C(CC2CCCCC2)n2cnc3cc(S(=O)(=O)CC4CC4)ccc3c2=O)nc1` (stereo not drawn) [Compound 90, 6-[3-Cyclohexyl-2-(7-cyclopropylmethanesulfonyl-4-oxo-4H-quinazolin-3-yl)-propionylamino]-nicotinic acid methyl ester], the EC50 is 0.501 to 0.794 µM.
As to `CS(=O)(=O)c1cc(Cl)c2ncn(C(CC3CCCCC3)C(=O)Nc3ccc(C(N)=O)cn3)c(=O)c2c1` (stereo not drawn) [Compound 92, 6-[2-(8-Chloro-6-methanesulfonyl-4-oxo-4H-quinazolin-3-yl)-3-cyclohexyl-propionylamino]-nicotinamide], the EC50 was in the range of 0.501 to 0.794 µM.
With `O=C(NC1CC1)c1ccc2c(=O)n(C(CC3CCCCC3)C(=O)Nc3ccc(F)cn3)c(=O)[nH]c2c1` (stereo not drawn) [Compound 119, 3-(3-cyclohexyl-1-(5-fluoropyridin-2-ylamino)-1-oxopropan-2-yl)-N-cyclopropyl-2,4-dioxo-1,2,3,4-tetrahydroquinazoline-7-carboxamide] the figure was no less than 2 µM; with `CN(C)CCNC(=O)c1ccc2c(=O)n(C(CC3CCCCC3)C(=O)Nc3ncc(Cl)s3)cnc2c1` (stereo not drawn) [Compound 176, 3-(1-(5-chlorothiazol-2-ylamino)-3-cyclohexyl-1-oxopropan-2-yl)-N-(2-(dimethylamino)ethyl)-4-oxo-3,4-dihydroquinazoline-7-carboxamide], 1 to 1.58 µM; with `CNC(=O)c1ccc2c(=O)n(C(CC3CCCCC3)C(=O)Nc3ncc(Cl)s3)cnc2c1` (stereo not drawn) [Compound 175, 3-(1-(5-chlorothiazol-2-ylamino)-3-cyclohexyl-1-oxopropan-2-yl)-N-methyl-4-oxo-3,4-dihydroquinazoline-7-carboxamide], no more than 0.398 µM.
`O=C(NC1CCCC1)c1ccc2c(=O)n(C(CC3CCCCC3)C(=O)Nc3ncc(Cl)s3)cnc2c1` (stereo not drawn) [Compound 173, 3-(1-(5-chlorothiazol-2-ylamino)-3-cyclohexyl-1-oxopropan-2-yl)-N-cyclopentyl-4-oxo-3,4-dihydroquinazoline-7-carboxamide]: the EC50 fell in the range of 0.501 to 0.794 µM.
As for `CN(C)CCNC(=O)c1ccc2c(=O)n(C(CC3CCCCC3)C(=O)Nc3ncc(Cl)s3)c(=O)[nH]c2c1` (stereo not drawn) [Compound 177, 3-(1-(5-chlorothiazol-2-ylamino)-3-cyclohexyl-1-oxopropan-2-yl)-N-(2-(dimethylamino)ethyl)-2,4-dioxo-1,2,3,4-tetrahydroquinazoline-7-carboxamide], the EC50 is 0.501 to 0.794 µM.
Next, `COC(=O)c1ccc(NC(=O)C(CC2CCCCC2)n2cnc3ccc(F)cc3c2=O)nc1` (stereo not drawn) [Compound 193, methyl 6-(3-cyclohexyl-2-(6-fluoro-4-oxoquinazolin-3(4H)-yl)propanamido)nicotinate]: no less than 2 µM.
Regarding `COc1ccc2ncn(C(CC3CCCCC3)C(=O)Nc3nccs3)c(=O)c2c1` (stereo not drawn) [Compound 131, 3-cyclohexyl-2-(6-methoxy-4-oxoquinazolin-3(4H)-yl)-N-(thiazol-2-yl)propanamide], the EC50 was no less than 2 µM.
`CS(=O)(=O)c1ccc2c(=O)n(C(CC3CCCCC3)C(=O)Nc3ncc(Cl)s3)c(=O)[nH]c2c1` (stereo not drawn) [Compound 55, N-(5-Chloro-thiazol-2-yl)-3-cyclohexyl-2-(7-methanesulfonyl-2,4-dioxo-1,4-dihydro-2H-quinazolin-3-yl)-propionamide]: the EC50 was 0.501 to 0.794 µM.
Next, `O=C(Nc1ccc(Cl)cn1)C(CC1CCCCC1)n1cnc2cc(S(=O)(=O)C3CC3)ccc2c1=O` (stereo not drawn) [Compound 75, N-(5-Chloro-pyridin-2-yl)-3-cyclohexyl-2-(7-cyclopropanesulfonyl-4-oxo-4H-quinazolin-3-yl)-propionamide]: 0.501 to 0.794 µM.
